Test results taken from patent US12629392B2, “Method of treating covid-19 infection using superparamagnetic iron oxide nanoparticle” (Imam Abdulrahman Bin Faisal University, priority 2023, dated 2026).

Tests used:
[1] = system: A549 cells; test: Cell viability (MTT) assay, A549 cells; format: cell-based, human; settings: 48 hours, two-way ANOVA with Dunnett's
[2] = system: HEK293 cells; test: Cell viability (MTT) assay, HEK293 cells; format: cell-based, human; settings: 48 hours, two-way ANOVA with Dunnett's
[3] = Dose 1 (0.025 mg/ml nanocomposite; 0.001125 mg/ml free Cp, Rib)
[4] = Dose 2 (0.05 mg/ml nanocomposite; 0.00225 mg/ml free Cp, Rib)
[5] = Dose 3 (0.1 mg/ml nanocomposite; 0.0045 mg/ml free Cp, Rib)
[6] = Dose 4 (0.5 mg/ml nanocomposite; 0.0225 mg/ml free Cp, Rib)

Row | Compound | Significant (cell viability vs no-treatment control) [1, 3] | Significant (cell viability vs no-treatment control) [1, 4] | Significant (cell viability vs no-treatment control) [1, 5] | Significant (cell viability vs no-treatment control) [1, 6] | Significant (cell viability vs no-treatment control) [2, 3] | Significant (cell viability vs no-treatment control) [2, 4] | Significant (cell viability vs no-treatment control) [2, 5] | Significant (cell viability vs no-treatment control) [2, 6]
1 | N.N.[Cl][Pt][Cl] [Cp, cisplatin] | No | No | No | Yes | No | No | No | Yes
2 | NC(=O)c1ncn([C@@H]2O[C@H](CO)[C@@H](O)[C@H]2O)n1 [Rib, 1-β-D-Ribofuranosyl-1,2,4-triazole-3-carboxamide] | No | No | No | Yes | No | No | Yes | Yes
